# Laboratory results published in patent publication US20160074409A1, “Treatment of Skeletal-Related Disorders” (priority 2013, published 2016).
# System: MDA-MB-231 breast carcinoma cells
# Test: Bone density in bone metastasis model (femoral and tibial X-ray densitometry)
# Type: in vivo, Nude (rnu/rnu) female rats
# Details: metastatic bone cancer model, MDA-MB-231 cells injected into tibia; Group G5: 90 mg/kg BID PO, N=6; 6 weeks; FIG. 1
# Protocol: Nude (rnu/rnu) female rats were obtained from Charles River (Wilmington, Mass.). The rats were pair-housed in polycarbonate micro-isolator cages lined with autoclaved bedding. Autoclaved reverse osmosis (RO) water and autoclaved standard rat chow were provided ad libitum. Body weights were recorded weekly throughout the course of the studies. Animals were maintained for 6 weeks and euthanized by carbon dioxide inhalation at the end of the experiment. The animals were randomized to study groups by body weight as follows: G1: vehicle BID PO (N=6), G2: 0.04 mg/kg zoledronate QWK IV (N=6), G5: 90 mg/kg Compound of Formula IV BID PO (N=6), and G6: No implantation (N=3).
# MDA-MB-231 breast carcinoma cells were propagated by standard tissue culture methods in RPMI media containing 10% fetal bovine serum. Exponentially growing cells were trypsinized and resuspended in phosphate-buffered saline at a concentration of 2.5×10^7 cells/mi. Rats were maintained under isoflurane anesthesia during the tumor injection procedure. […]
# Radiographs were taken with rats under general anaesthesia. […] Radiographs were scanned and analysed. […]
# Femoral and tibial X-ray densitometry was performed. In brief, bones were X-rayed, the film was scanned and the electronic image then analysed by a real-colour image analysis system. Pixel density was then determined and used as a measure of disease progression.
compound,measurement,value
CC#CC(=O)N1CCCC1c1nc(-c2ccc(C(=O)Nc3ccccn3)cc2)c2c(N)ncnn12 (stereo not shown) [Compound of Formula IV],"bone density (femoral and tibial X-ray densitometry, pixel density)",inhibition of the decrease in bone density
